Data as given in ChEMBL document CHEMBL1201862, “PubChem BioAssay data set” (2004).
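Method: 48-hour compound exposure of cells in 96-well plates, five concentrations, linear interpolation of endpoints. Here, GI50 denotes the concentration required for 50% inhibition of growth.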 Calls of active or inactive are those of the source. Cut-off read from the data, not from the text of the source: active = GI50 up to about 1.1 µM and inactive = higher.

Experiments:
Test in all cases: NCI-60 cell line screen, 48 h
Malme-3M = system: Malme-3M
M14 = system: M14
SK-OV-3 = system: SK-OV-3
UACC-257 = system: UACC-257
SN12C = system: SN12C
RXF 393 = system: RXF 393
SK-MEL-28 = system: SK-MEL-28
SNB-19 = system: SNB-19
LOX IMVI = system: LOX IMVI
SK-MEL-5 = system: SK-MEL-5
OVCAR-3 = system: OVCAR-3
DMS-114 = system: DMS-114
MOLT-4 = system: MOLT-4
TK-10 = system: TK-10
RPMI-8226 = system: RPMI-8226
ACHN = system: ACHN

Measured: GI50

O=C1C[C@@H]2[C@@H](CCC23CC3)N1
inactive: Malme-3M > 100 µM | M14 > 100 µM | SK-OV-3 > 100 µM | UACC-257 > 100 µM | SN12C > 100 µM | RXF 393 > 100 µM | SK-MEL-28 > 100 µM | SNB-19 > 100 µM | LOX IMVI > 100 µM | SK-MEL-5 > 100 µM | OVCAR-3 > 100 µM | DMS-114 > 100 µM | MOLT-4 > 10 µM | TK-10 > 100 µM | RPMI-8226 > 100 µM

COC(=O)[C@@]12C(=O)CCC(=O)C1C1C(=CC2C)O[C@@H]2OC3(CCCCC3)O[C@H]12 (some centres not stated)
inactive: Malme-3M > 100 µM | M14 > 100 µM | SK-OV-3 > 100 µM | ACHN > 55.1 µM | UACC-257 > 100 µM | SN12C > 100 µM | RXF 393 69.2 µM | SK-MEL-28 97.3 µM | SNB-19 > 89.5 µM | LOX IMVI > 72.1 µM | SK-MEL-5 > 100 µM | OVCAR-3 34.8 µM | DMS-114 48 µM | MOLT-4 27.4 µM | TK-10 > 100 µM | RPMI-8226 19 µM

O=C1c2ccccc2C(=O)N1/N=C\c1ccc(Br)cc1
inactive: Malme-3M > 10 µM | M14 > 10 µM | SK-OV-3 > 100 µM | ACHN > 10 µM | UACC-257 > 10 µM | SN12C > 10 µM | RXF 393 > 10 µM | SK-MEL-28 > 10 µM | SNB-19 > 10 µM | LOX IMVI > 10 µM | SK-MEL-5 > 10 µM | OVCAR-3 > 10 µM | DMS-114 > 10 µM | MOLT-4 > 10 µM | TK-10 > 10 µM | RPMI-8226 > 10 µM

CC(=O)c1sc(-c2nc(C)c(C(=O)/C=C\c3ccc(/C=C\C(=O)c4sc(-c5nc(C)c(C(C)=O)s5)nc4C)cc3)s2)nc1C
inactive: Malme-3M > 100 µM | M14 > 100 µM | SK-OV-3 > 100 µM | ACHN > 100 µM | UACC-257 > 100 µM | SN12C > 100 µM | RXF 393 > 100 µM | SK-MEL-28 > 100 µM | SNB-19 > 100 µM | LOX IMVI > 100 µM | OVCAR-3 > 100 µM | DMS-114 > 100 µM | MOLT-4 > 100 µM | TK-10 > 100 µM | RPMI-8226 50.5 µM

O=C(NCC(O)CNC(=O)C(F)(F)F)C(F)(F)F
inactive: Malme-3M > 100 µM | M14 > 100 µM | SK-OV-3 > 100 µM | UACC-257 > 100 µM | SN12C > 100 µM | RXF 393 > 100 µM | SNB-19 > 100 µM | LOX IMVI > 100 µM | SK-MEL-5 > 100 µM | OVCAR-3 > 100 µM | DMS-114 > 100 µM | MOLT-4 > 100 µM | TK-10 > 100 µM | RPMI-8226 > 100 µM

CCCCCCCCCCC(=O)CC(=O)c1c(O)cccc1O
inactive: Malme-3M 35.9 µM | M14 40.2 µM | SK-OV-3 38.1 µM | ACHN 30 µM | UACC-257 31.2 µM | SN12C 29.3 µM | RXF 393 26.3 µM | SK-MEL-28 53.7 µM | SNB-19 61.8 µM | LOX IMVI 18.7 µM | SK-MEL-5 28.4 µM | OVCAR-3 24.2 µM | DMS-114 26.1 µM | MOLT-4 20.4 µM | TK-10 46.2 µM | RPMI-8226 21.1 µM

COC(=O)C1(C)CCc2c(OC)ccc(OC)c2C1=O (configuration not stated)
inactive: Malme-3M > 100 µM | M14 > 100 µM | SK-OV-3 > 100 µM | ACHN > 100 µM | UACC-257 > 100 µM | SN12C > 100 µM | RXF 393 > 100 µM | SK-MEL-28 > 100 µM | SNB-19 > 100 µM | LOX IMVI > 100 µM | SK-MEL-5 > 100 µM | OVCAR-3 > 100 µM | DMS-114 > 100 µM | MOLT-4 > 100 µM | TK-10 > 100 µM | RPMI-8226 > 100 µM

Cc1ccc(-c2cc(=O)c3cc(C)c(C)c(C(=O)O)c3o2)cc1[N+](=O)[O-]
inactive: Malme-3M > 100 µM | M14 > 100 µM | SK-OV-3 > 100 µM | ACHN > 100 µM | UACC-257 > 100 µM | SN12C > 100 µM | RXF 393 > 100 µM | SK-MEL-28 > 100 µM | SNB-19 > 100 µM | LOX IMVI > 100 µM | SK-MEL-5 > 100 µM | OVCAR-3 > 100 µM | DMS-114 > 100 µM | MOLT-4 > 100 µM | TK-10 > 100 µM | RPMI-8226 > 100 µM

CCOC(=O)C12C(C(=O)OC)=C(C)N(NC(=O)Nc3ccccc3)C1(N)N(NC(=O)Nc1ccccc1)C(C)=C2C(=O)OC (configuration not stated)
inactive: Malme-3M 21.6 µM | M14 21.2 µM | SK-OV-3 > 59.8 µM | ACHN 34.1 µM | UACC-257 21.1 µM | SN12C > 61.5 µM | RXF 393 29.2 µM | SK-MEL-28 34.1 µM | SNB-19 29.4 µM | LOX IMVI 17 µM | SK-MEL-5 19.9 µM | OVCAR-3 22.9 µM | DMS-114 31.9 µM | MOLT-4 17.9 µM | TK-10 36.1 µM | RPMI-8226 25.9 µM

[O-][S+]1c2ccccc2N=C(c2cccs2)CC1c1ccccc1O (configuration not stated)
inactive: Malme-3M > 100 µM | M14 > 100 µM | SK-OV-3 > 100 µM | ACHN > 100 µM | UACC-257 > 100 µM | SN12C > 100 µM | RXF 393 63.1 µM | SK-MEL-28 > 100 µM | SNB-19 > 100 µM | LOX IMVI > 100 µM | SK-MEL-5 > 100 µM | OVCAR-3 > 100 µM | DMS-114 37.2 µM | MOLT-4 > 100 µM | TK-10 > 100 µM | RPMI-8226 > 100 µM

NC(=O)NC12CC3CC(CC(F)(C3)C1)C2
inactive: Malme-3M > 100 µM | M14 > 100 µM | SK-OV-3 > 100 µM | ACHN > 100 µM | UACC-257 > 100 µM | RXF 393 > 100 µM | SK-MEL-28 > 100 µM | SNB-19 > 100 µM | LOX IMVI > 100 µM | OVCAR-3 > 100 µM | DMS-114 > 100 µM | MOLT-4 > 100 µM | TK-10 > 100 µM | RPMI-8226 > 100 µM

O=C1OC(c2ccccc2)=N/C1=C\c1cccc2ccccc12
inactive: Malme-3M > 100 µM | M14 > 100 µM | SK-OV-3 > 100 µM | ACHN > 100 µM | UACC-257 > 100 µM | SN12C > 100 µM | RXF 393 > 100 µM | SK-MEL-28 > 100 µM | SNB-19 > 100 µM | LOX IMVI > 100 µM | SK-MEL-5 > 100 µM | OVCAR-3 > 100 µM | DMS-114 > 100 µM | MOLT-4 > 100 µM | TK-10 > 100 µM | RPMI-8226 > 100 µM

Cc1ccccc1/C=N/C12CC3CC(CC(C3)C1)C2
inactive: Malme-3M > 100 µM | M14 > 100 µM | SK-OV-3 > 100 µM | ACHN > 100 µM | UACC-257 > 100 µM | SN12C > 100 µM | RXF 393 > 100 µM | SK-MEL-28 > 100 µM | SNB-19 > 100 µM | LOX IMVI > 100 µM | SK-MEL-5 > 100 µM | OVCAR-3 > 100 µM | DMS-114 > 100 µM | MOLT-4 > 100 µM | TK-10 > 100 µM | RPMI-8226 > 100 µM
